Results reported in patent publication US6867185B2 (Bristol-Myers Squibb Company, priority 2001, dated 2005).
Counter-ions that a name gives are not always drawn. Like-named read-outs stand apart in the source and are kept apart here.

Columns and labels:
[1] = test system: HCV replicon in Huh7 cells; experiment: HCV replicon cell-based assay (replicon FRET assay); design: species or system HCV strain 1B; conditions: Hepatitis C virus, Huh-7, HCV replicon cell assay
How it was run: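 Huh7 cells carrying a genotype 1b subgenomic replicon (neo, NS3–NS5B) were treated with compound for 4 days at 37 °C in 0.5% DMSO final. Lysates with 10 μM RET S1 FRET peptide and 150 mM NaCl were read kinetically at 340/490 nm over 21 cycles. EC50 was derived as for the enzyme IC50.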

[2] = molecular target: T1, human neutrophil elastase (HNE) (Homo sapiens, UniProt P08246); experiment: Specificity assay, human neutrophil elastase; type: biochemical; conditions: 2 hr pre-incubation, read-out: HLE
T1 construct: purchased Sigma
T1 sequence (P08246 30-267): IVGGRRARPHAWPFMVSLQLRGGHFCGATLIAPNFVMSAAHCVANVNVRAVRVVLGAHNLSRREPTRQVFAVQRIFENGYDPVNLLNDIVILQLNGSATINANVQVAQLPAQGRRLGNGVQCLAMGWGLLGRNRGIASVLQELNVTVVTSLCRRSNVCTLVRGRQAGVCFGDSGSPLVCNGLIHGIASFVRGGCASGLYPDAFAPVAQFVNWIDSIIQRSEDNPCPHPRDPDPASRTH
Protocol: (§1) The specificities of compounds of the present invention were determined against a variety of serine proteases: human neutrophil elastase (HNE), porcine pancreatic elastase (PPE) and human pancreatic chymotrypsin and one cysteine protease: human liver cathepsin B. In all cases a 96-well plate format protocol using colorimetric p-nitroaniline (pNA) substrate specific for each enzyme was used as described previously (U.S. Pat. No. 6,323,180) with some modifications to the serine protease assays. All enzymes were purchased from Sigma while the substrates were from Bachem.
(§2) Each assay included a 2 hr enzyme-inhibitor pre-incubation at RT followed by addition of substrate and hydrolysis to ˜30% conversion as measured on a Spectramax Pro microplate reader. Compound concentrations varied from 100 to 0.4 μM depending on their potency. […]
(§3) The percentage of inhibition was calculated using the formula: [1−((UVinh−UVblank)/(UVctl−UVblank))]×100 […]

[3] = molecular target: T2, human liver cathepsin B (Homo sapiens, UniProt P07858); experiment: Specificity assay, cathepsin B; type: biochemical; conditions: 2 hr pre-incubation
T2 construct: purchased Sigma; host or cells: human liver (as named)
Protocol: as §1, §2, §3

## COc1ccc2c(O[C@@H]3C[C@H]4C(=O)N[C@]5(C(=O)NS(=O)(=O)C6CC6)CC5/C=C/CCCC[C@H](N)C(=O)N4C3)cc(-c3ccccc3)nc2c1 (stereo partly drawn) [Compound 6, (1S,4R,6S,13S,17R)-7-trans-Cyclopropanesulfonic acid [13-amino-17-(7-methoxy-2-phenylquinolin-4-yloxy)-2,14-dioxo-3,15-diazatricyclo[13.3.0.0^4,6]octadec-7-ene-4-carbonyl]amide dihydrochloride]
[1]; EC50 ranges
  EC50: < 0.5 µM
[1]; read-out: EC50
  EC50: ~0.124 µM
[2]
  IC50: 30 µM
[3]
  IC50: > 100 µM
